# Reference: ChEMBL document CHEMBL3991601, “The target landscape of clinical kinase drugs” (Science, 2017)
# The source made the active and inactive calls.
# Tests used:
# [1] = target: T1, Serine/threonine-protein kinase A-Raf (Homo sapiens, UniProt P10398)
# T1 sequence (P10398 whole entry): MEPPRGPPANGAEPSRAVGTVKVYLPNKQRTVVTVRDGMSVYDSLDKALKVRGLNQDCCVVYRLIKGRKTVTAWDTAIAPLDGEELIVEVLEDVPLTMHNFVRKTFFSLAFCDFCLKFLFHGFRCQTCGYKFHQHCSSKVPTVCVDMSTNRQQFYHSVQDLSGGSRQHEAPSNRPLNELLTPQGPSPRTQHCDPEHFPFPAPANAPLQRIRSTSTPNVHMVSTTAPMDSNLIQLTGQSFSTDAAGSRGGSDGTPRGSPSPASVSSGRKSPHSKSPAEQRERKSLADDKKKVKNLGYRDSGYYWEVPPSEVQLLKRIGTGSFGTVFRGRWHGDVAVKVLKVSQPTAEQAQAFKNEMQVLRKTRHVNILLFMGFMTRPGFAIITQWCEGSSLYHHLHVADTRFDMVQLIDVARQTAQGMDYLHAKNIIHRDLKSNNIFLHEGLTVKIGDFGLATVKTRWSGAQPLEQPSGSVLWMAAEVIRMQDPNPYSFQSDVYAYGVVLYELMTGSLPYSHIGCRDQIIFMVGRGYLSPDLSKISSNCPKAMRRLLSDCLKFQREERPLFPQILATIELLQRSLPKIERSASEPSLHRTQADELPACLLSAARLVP
# [2] = target: T2, Phosphatidylinositol 5-phosphate 4-kinase type-2 alpha (Homo sapiens, UniProt P48426)
# T2 sequence (P48426 whole entry): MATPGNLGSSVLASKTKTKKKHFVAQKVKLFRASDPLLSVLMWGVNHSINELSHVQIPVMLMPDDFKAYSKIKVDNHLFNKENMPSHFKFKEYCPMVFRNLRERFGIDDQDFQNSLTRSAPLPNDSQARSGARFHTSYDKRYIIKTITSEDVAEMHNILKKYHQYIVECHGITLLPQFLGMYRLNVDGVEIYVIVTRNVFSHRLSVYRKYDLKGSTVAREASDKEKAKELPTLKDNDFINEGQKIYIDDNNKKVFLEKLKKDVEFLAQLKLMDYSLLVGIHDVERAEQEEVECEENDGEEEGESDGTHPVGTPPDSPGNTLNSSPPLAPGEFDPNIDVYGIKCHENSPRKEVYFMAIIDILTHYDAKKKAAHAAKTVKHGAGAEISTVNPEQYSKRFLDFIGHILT
# [3] = target: T3, Acyl-CoA dehydrogenase family member 10 (Homo sapiens, UniProt Q6JQN1)
# T3 sequence (Q6JQN1 whole entry): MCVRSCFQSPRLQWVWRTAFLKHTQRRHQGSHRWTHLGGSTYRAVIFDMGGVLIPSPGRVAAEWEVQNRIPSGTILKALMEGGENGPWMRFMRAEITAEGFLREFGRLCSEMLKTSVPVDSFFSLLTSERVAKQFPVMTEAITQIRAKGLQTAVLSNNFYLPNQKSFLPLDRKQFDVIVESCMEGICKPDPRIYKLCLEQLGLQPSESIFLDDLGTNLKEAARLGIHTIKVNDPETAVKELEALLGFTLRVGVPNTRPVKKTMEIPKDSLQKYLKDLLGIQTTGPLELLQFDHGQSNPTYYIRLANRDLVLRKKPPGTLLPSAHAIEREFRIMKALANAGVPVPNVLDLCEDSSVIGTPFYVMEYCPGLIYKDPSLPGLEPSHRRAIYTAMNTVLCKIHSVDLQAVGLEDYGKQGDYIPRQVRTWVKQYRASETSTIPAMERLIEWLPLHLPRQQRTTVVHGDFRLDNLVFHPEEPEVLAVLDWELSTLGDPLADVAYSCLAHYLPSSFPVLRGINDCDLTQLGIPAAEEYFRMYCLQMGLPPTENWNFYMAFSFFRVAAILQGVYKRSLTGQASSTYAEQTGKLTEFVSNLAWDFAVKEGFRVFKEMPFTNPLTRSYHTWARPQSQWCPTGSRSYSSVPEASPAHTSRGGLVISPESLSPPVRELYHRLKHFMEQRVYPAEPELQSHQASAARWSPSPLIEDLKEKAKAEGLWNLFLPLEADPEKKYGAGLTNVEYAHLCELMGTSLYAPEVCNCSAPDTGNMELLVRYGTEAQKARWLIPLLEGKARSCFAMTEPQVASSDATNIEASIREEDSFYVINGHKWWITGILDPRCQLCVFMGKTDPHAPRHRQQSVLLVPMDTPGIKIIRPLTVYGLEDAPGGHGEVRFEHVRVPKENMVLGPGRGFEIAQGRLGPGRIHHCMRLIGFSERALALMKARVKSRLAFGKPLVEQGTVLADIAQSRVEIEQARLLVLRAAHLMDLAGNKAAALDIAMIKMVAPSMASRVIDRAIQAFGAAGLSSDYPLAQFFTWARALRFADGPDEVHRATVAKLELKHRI
# [4] = target: Tyrosine-protein kinase Lyn (Homo sapiens, UniProt P07948)
# Sequence of Tyrosine-protein kinase Lyn (P07948 whole entry, the tested form may be a part): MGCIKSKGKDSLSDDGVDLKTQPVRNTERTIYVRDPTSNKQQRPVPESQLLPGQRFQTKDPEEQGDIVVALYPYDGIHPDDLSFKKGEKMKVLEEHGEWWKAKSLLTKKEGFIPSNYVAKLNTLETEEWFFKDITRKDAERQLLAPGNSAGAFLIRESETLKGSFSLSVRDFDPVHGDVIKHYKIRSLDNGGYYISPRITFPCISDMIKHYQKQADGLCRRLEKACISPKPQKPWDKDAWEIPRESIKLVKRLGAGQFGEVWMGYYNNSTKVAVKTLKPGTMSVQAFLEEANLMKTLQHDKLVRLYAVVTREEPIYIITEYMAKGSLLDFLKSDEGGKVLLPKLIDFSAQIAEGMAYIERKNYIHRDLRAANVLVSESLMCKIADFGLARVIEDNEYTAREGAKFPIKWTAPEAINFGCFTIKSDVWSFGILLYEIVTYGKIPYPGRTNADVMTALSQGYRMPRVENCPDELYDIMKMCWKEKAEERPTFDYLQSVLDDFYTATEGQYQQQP
# LIM domain kinase 1 = LIM domain kinase 1 (Homo sapiens, UniProt P53667)
# Sequence of LIM domain kinase 1 (P53667 whole entry, the tested form may be a part, canonical isoform): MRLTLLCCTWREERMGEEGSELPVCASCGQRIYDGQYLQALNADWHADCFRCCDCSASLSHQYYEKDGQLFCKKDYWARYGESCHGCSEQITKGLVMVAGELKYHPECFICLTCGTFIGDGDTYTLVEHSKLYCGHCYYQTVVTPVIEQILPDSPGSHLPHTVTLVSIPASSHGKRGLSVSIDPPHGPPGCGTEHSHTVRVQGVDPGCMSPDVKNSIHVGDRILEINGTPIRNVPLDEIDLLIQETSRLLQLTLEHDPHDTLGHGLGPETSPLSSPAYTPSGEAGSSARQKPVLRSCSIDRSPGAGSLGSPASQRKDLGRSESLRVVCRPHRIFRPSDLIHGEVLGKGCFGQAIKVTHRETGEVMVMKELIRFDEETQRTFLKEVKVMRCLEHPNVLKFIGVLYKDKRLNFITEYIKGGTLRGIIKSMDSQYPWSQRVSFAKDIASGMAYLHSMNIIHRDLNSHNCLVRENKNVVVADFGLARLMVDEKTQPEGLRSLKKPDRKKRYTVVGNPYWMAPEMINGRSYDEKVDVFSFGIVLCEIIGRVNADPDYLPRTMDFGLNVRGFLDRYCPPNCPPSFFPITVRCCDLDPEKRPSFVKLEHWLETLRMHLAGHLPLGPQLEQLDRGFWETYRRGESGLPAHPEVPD
# [5] = target: T4, Phosphorylase b kinase gamma catalytic chain, liver/testis isoform (Homo sapiens, UniProt P15735)
# T4 sequence (P15735 whole entry): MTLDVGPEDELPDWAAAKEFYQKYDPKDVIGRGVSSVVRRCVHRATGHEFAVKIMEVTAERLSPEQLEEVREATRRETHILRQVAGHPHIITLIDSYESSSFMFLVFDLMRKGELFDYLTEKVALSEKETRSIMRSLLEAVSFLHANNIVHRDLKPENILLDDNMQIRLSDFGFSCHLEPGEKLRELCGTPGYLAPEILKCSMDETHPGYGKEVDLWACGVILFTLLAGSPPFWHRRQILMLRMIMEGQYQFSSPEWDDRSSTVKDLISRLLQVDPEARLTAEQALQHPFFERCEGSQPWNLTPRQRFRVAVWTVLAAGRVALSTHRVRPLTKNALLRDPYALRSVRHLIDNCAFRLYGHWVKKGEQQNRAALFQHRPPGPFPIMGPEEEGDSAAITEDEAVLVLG
# [6] = target: Putative heat shock protein HSP 90-beta 2 (Homo sapiens, UniProt Q58FF8)
# Sequence of Putative heat shock protein HSP 90-beta 2 (Q58FF8 whole entry): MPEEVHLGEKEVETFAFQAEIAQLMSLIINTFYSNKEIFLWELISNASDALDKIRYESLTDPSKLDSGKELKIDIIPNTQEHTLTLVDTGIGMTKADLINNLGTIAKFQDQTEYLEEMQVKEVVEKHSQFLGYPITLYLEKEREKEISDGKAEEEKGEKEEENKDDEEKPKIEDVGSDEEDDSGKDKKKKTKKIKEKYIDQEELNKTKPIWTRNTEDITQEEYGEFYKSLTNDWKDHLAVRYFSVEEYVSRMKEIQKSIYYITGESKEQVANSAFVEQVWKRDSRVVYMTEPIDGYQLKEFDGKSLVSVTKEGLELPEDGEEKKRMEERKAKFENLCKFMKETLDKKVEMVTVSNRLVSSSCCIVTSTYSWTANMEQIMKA
# [7] = target: MAP/microtubule affinity-regulating kinase 3 (Homo sapiens, UniProt P27448)
# Sequence of MAP/microtubule affinity-regulating kinase 3 (P27448 whole entry): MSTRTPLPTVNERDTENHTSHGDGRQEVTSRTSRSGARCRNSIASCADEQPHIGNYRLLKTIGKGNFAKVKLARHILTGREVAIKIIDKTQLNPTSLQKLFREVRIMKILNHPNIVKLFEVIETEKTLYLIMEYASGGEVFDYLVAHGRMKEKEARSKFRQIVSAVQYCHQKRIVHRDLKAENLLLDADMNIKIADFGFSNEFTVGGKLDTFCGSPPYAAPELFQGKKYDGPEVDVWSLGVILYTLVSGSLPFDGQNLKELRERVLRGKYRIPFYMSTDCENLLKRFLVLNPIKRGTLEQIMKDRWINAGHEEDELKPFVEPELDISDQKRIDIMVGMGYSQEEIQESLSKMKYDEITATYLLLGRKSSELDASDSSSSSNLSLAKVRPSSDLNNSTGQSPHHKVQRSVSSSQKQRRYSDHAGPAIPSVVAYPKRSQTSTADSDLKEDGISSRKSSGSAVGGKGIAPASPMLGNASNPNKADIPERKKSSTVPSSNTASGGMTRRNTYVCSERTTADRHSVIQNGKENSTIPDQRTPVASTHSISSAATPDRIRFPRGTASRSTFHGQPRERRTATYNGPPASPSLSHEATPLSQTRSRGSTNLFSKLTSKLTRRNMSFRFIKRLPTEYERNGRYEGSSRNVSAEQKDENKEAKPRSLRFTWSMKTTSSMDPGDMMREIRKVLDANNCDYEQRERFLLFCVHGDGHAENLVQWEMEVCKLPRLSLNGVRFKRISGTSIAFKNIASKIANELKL
# Also: in the data inactive means no Kd found up to 30 µM.
Kd [1],Kd [2],Kd [3],Kd [4],Kd (LIM domain kinase 1),Kd [5],Kd [6],Kd [7],Compound
> 30 µM (inactive),> 30 µM (inactive),> 30 µM (inactive),> 30 µM (inactive),> 30 µM (inactive),> 30 µM (inactive),> 30 µM (inactive),> 30 µM (inactive),O=c1[nH]c([C@@H]2CCCN2)nc2c1oc1ccc(Cl)cc12
> 30 µM (inactive),> 30 µM (inactive),,> 30 µM (inactive),> 30 µM (inactive),> 30 µM (inactive),> 30 µM (inactive),> 30 µM (inactive),CCN1CCN(Cc2ccc(Nc3ncc(F)c(-c4cc(F)c5nc(C)n(C(C)C)c5c4)n3)nc2)CC1 [ABEMACICLIB]
> 30 µM (inactive),> 30 µM (inactive),> 30 µM (inactive),> 30 µM (inactive),> 30 µM (inactive),1.71 µM (active),> 30 µM (inactive),> 30 µM (inactive),CCc1cc2c(cc1N1CCC(N3CCOCC3)CC1)C(C)(C)c1[nH]c3cc(C#N)ccc3c1C2=O [ALECTINIB]
> 30 µM (inactive),> 30 µM (inactive),> 30 µM (inactive),> 30 µM (inactive),> 30 µM (inactive),> 30 µM (inactive),> 30 µM (inactive),> 30 µM (inactive),COc1ccc2c(OCc3nnc4ccc(-c5ccccc5)nn34)ccnc2c1 [AMG-208]
> 30 µM (inactive),> 30 µM (inactive),> 30 µM (inactive),> 30 µM (inactive),> 30 µM (inactive),> 30 µM (inactive),,> 30 µM (inactive),S=C(NCc1ccc2c(c1)OCO2)N1CCN(c2ncnc3c2oc2ccccc23)CC1 [AMUVATINIB]
> 30 µM (inactive),> 30 µM (inactive),> 30 µM (inactive),> 30 µM (inactive),> 30 µM (inactive),> 30 µM (inactive),> 30 µM (inactive),> 30 µM (inactive),Cc1cc(Nc2nc(N[C@@H](C)c3ncc(F)cn3)ncc2Cl)n[nH]1 [AZD-1480]
> 30 µM (inactive),> 30 µM (inactive),> 30 µM (inactive),0.887 µM (active),> 30 µM (inactive),4.62 µM (active),> 30 µM (inactive),1.7 µM (active),COc1cccc(Nc2ncnn3ccc(CN4CC[C@@H](N)[C@H](O)C4)c23)c1 [BMS-690514]
,> 30 µM (inactive),> 30 µM (inactive),> 30 µM (inactive),> 30 µM (inactive),> 30 µM (inactive),> 30 µM (inactive),> 30 µM (inactive),CCOc1ccn(-c2ccc(F)cc2)c(=O)c1C(=O)Nc1ccc(Oc2ccnc(N)c2Cl)c(F)c1 [BMS-777607]
> 30 µM (inactive),> 30 µM (inactive),> 30 µM (inactive),1.33 µM (active),> 30 µM (inactive),> 30 µM (inactive),> 30 µM (inactive),> 30 µM (inactive),COc1cc2nccc(Oc3ccc(NC(=O)C4(C(=O)Nc5ccc(F)cc5)CC4)cc3)c2cc1OC [CABOZANTINIB]
> 30 µM (inactive),> 30 µM (inactive),> 30 µM (inactive),> 30 µM (inactive),> 30 µM (inactive),> 30 µM (inactive),> 30 µM (inactive),> 30 µM (inactive),c1cc(OCCN2CCCCC2)cc(-c2n[nH]c3ccc(-c4nc[nH]n4)cc23)c1 [CC-401]
> 30 µM (inactive),> 30 µM (inactive),> 30 µM (inactive),> 30 µM (inactive),,> 30 µM (inactive),> 30 µM (inactive),,Cn1c(=O)n(-c2ccc(C(C)(C)C#N)cc2)c2c3cc(-c4cnc5ccccc5c4)ccc3ncc21 [DACTOLISIB]
> 30 µM (inactive),> 30 µM (inactive),,> 30 µM (inactive),> 30 µM (inactive),> 30 µM (inactive),> 30 µM (inactive),> 30 µM (inactive),C[C@@H]1COC(Nc2ccc3ncnc(Nc4ccc(OCc5nccs5)c(Cl)c4)c3c2)=N1 [VARLITINIB]
> 30 µM (inactive),> 30 µM (inactive),,> 30 µM (inactive),> 30 µM (inactive),> 30 µM (inactive),> 30 µM (inactive),> 30 µM (inactive),COc1cc2ncnc(Nc3ccc(O)cc3)c2cc1OC [WHI-P131]

Compound,Kd [1],Kd [2],Kd [3],Kd [4],Kd (LIM domain kinase 1),Kd [5],Kd [6],Kd [7]
Cn1cc(-c2[nH]c3cc(NC(=O)[C@H](N)C4CCCCC4)cc4c3c2C=NNC4=O)cn1,> 30 µM (inactive),> 30 µM (inactive),> 30 µM (inactive),0.331 µM (active),0.133 µM (active),> 30 µM (inactive),> 30 µM (inactive),0.387 µM (active)
NC[C@@](O)(c1ccc(Cl)cc1)c1ccc(-c2cn[nH]c2)cc1 [AT-13148],,> 30 µM (inactive),> 30 µM (inactive),> 30 µM (inactive),> 30 µM (inactive),> 30 µM (inactive),> 30 µM (inactive),> 30 µM (inactive)
O=S(=O)(c1cccc2cnccc12)N1CCCNCC1 [FASUDIL],> 30 µM (inactive),> 30 µM (inactive),> 30 µM (inactive),> 30 µM (inactive),,> 30 µM (inactive),> 30 µM (inactive),> 30 µM (inactive)
CCc1nc(C(N)=O)c(Nc2ccc(N3CCC(N4CCN(C)CC4)CC3)c(OC)c2)nc1NC1CCOCC1 [GILTERITINIB],> 30 µM (inactive),> 30 µM (inactive),> 30 µM (inactive),> 30 µM (inactive),> 30 µM (inactive),,> 30 µM (inactive),> 30 µM (inactive)
C[C@]1(O)C[C@@H](c2nc(-c3ccc4ccc(-c5ccccc5)nc4c3)c3c(N)nccn32)C1 [LINSITINIB],> 30 µM (inactive),> 30 µM (inactive),> 30 µM (inactive),,> 30 µM (inactive),,> 30 µM (inactive),
N#CCNC(=O)c1ccc(-c2ccnc(Nc3ccc(N4CCOCC4)cc3)n2)cc1 [MOMELOTINIB],> 30 µM (inactive),> 30 µM (inactive),> 30 µM (inactive),,> 30 µM (inactive),> 30 µM (inactive),> 30 µM (inactive),
